According to patent publication US20200102264A1, “MARMELIN ANALOGS AND METHODS OF USE IN CANCER TREATMENT” (THE UNIVERSITY OF KANSAS, priority 2014, published 2020):

Tests used:
HCT116 cells [1] = assay: cell cycle analysis, HCT116; type: cell-based; conditions: HCT116, Table 3
SW480 colon cancer cells = assay: hexoseaminidase cell proliferation assay, SW480; type: cell-based; conditions: Homo sapiens
From the text: (§1) Using hexoseaminidase assay, we determined the effect of the compounds on cell proliferation. […]
(§2) Using hexoseaminidase assay, we determined the effect of the compounds on cell proliferation. […] […] […] Overall, the analogs can be used as chemotherapeutic agents against colon and pancreatic cancer.

[2] = test system: HCT116 colon cancer cells; assay: hexoseaminidase cell proliferation assay, HCT116; type: cell-based; conditions: Homo sapiens, HCT-116
From the text: as §1, §2

SW480 cells [3] = assay: colony formation, SW480; type: cell-based
[4] = test system: PanC-1 pancreatic cancer cells; assay: hexoseaminidase cell proliferation assay, PanC-1; type: cell-based; conditions: Homo sapiens
Method: (§3) Using hexoseaminidase assay, we determined the effect of the compounds on cell proliferation. […] The IC50 value at 48 hours is below 10 μM in all the cancer cell lines.
(§4) Using hexoseaminidase assay, we determined the effect of the compounds on cell proliferation. […] The MRL16 IC50 value at 48 hours is below 0.3 μM in Colon cancer cell lines. […] Overall, the analogs can be used as chemotherapeutic agents against colon and pancreatic cancer.

HCT116 cells [5] = assay: colony formation, HCT116; type: cell-based
[6] = test system: transcription factor NF-κB; conditions: previous studies, Cancer Res. 2008; cited from earlier work
[7] = test system: MiaPaCa-2 pancreatic cancer cells; assay: hexoseaminidase cell proliferation assay, MiaPaCa-2; type: cell-based; conditions: Homo sapiens, MIA PaCa-2
Method: as §3, §4

SW480 cells [8] = assay: cell cycle analysis, SW480; type: cell-based; conditions: SW480, Table 3
Method: The analogs were tested to determine the ability induce death of colon cancer cells.

For COc1cc(OC)c2ccc(C=O)c(O)c2c1 [MRL, 1-hydroxy-5,7-dimethoxy-2-naphthalene-carboxaldehyde, reference compound], the “G0/G1 (%)” value (HCT116 cells [1]) was 45.3%, the “G2M (%)” value (HCT116 cells [1]) was 11.4% and the “S (%)” value (HCT116 cells [1]) was 11.5%. The “SubG0 Dead Cells (%)” value (HCT116 cells [1]) was 29.9%, the IC50 (SW480 colon cancer cells; SW480, 24 h) was > 50 µM and the IC50 (SW480 colon cancer cells; SW480, 48 h) was > 50 µM. For the same compound, the IC50 (SW480 colon cancer cells; SW480, 72 h) was > 50 µM, the IC50 ([2]; HCT116, 24 h) was > 50 µM and the IC50 ([2]; HCT116, 48 h) was > 50 µM. For the same compound, the IC50 ([2]; HCT116, 72 h) was > 50 µM, the colony formation (SW480 cells [3]) was “does not appear to significantly inhibit colony formation” and the IC50 ([4]; PANC-1, 24 h) was > 50 µM. The IC50 ([4]; PANC-1, 48 h) was > 50 µM, the IC50 ([4]; PANC-1, 72 h) was > 50 µM and the colony formation (HCT116 cells [5]) was “does not appear to significantly inhibit colony formation”. The “action of transcription factor NF-κB” value [6] was “can inhibit”, the IC50 ([7]; MiaPaCa-2, 24 h) was > 50 µM and the IC50 ([7]; MiaPaCa-2, 48 h) was > 50 µM. For the same compound, the IC50 ([7]; MiaPaCa-2, 72 h) was > 50 µM, the “G0/G1 (%)” value (SW480 cells [8]) was 65.3% and the “G2M (%)” value (SW480 cells [8]) was 18.1%. For the same compound, the “S (%)” value (SW480 cells [8]) was 10.2% and the “SubG0 Dead Cells (%)” value (SW480 cells [8]) was 6.0%.
